Where two headings read alike, the source gives them in different places.
Columns and labels:
Format in all cases: cell-based
[1] = system: SF126 (human glioblastoma multiforme cell); test: Cell viability assay (Promega CellTiter-Glo), inhibitory effect on SF126
Description: (§1) The inhibitory effect of the compounds prepared in the Examples of the present invention on various tumor cell lines was detected using cell viability assay reagent.
(§2) Cell viability was detected using the Promega CellTiter-Glo kit, cell viability was determined by directly measuring intracellular ATP content. In the experiment, the ICso value of the compounds prepared in the Examples of the present invention on various tumor cell lines was detected.
(§3) Each tumor cell was cultured in relevant medium. After cell passage, the gradient diluted compounds prepared in the Examples of the present invention was added. After 3 days of culture, the relevant IC50 (50% inhibiting concentration) was measured. The name, source and culture conditions of each tumor cell line were as follows:
Cell line SF126 (JCRB, No. IFO50286) was cultured in 10% fetal bovine serum-containing EMEM medium (+P/S).
(§4) The inhibitory effect of the compounds prepared in the Examples of the present invention on various brain tumor cell lines was detected using cell viability assay reagent.
(§5) Cell viability was detected using the Promega CellTiter-Glo kit, cell viability was determined by directly measuring intracellular ATP content. In the experiment, the IC50 value of the compounds prepared in the Examples of the present invention on various brain tumor cell lines was detected.

[2] = system: NCI-H82 (human small cell lung cancer cell); test: Cell viability assay (Promega CellTiter-Glo), inhibitory effect on NCI-H82; conditions: 72 h, 3 days of culture
Description: as §1, §2, §3
Cell line NCI-H82 (ATCC, No. HTB-175) was cultured in 10% fetal bovine serum-containing RPMI1640 medium (+P/S).

[3] = system: NB-1 (brain neuroblastoma cell); test: Cell viability assay (Promega CellTiter-Glo), inhibitory effect on NB-1; conditions: Homo sapiens, 72 h, 3 days of culture, read-out: inhibitory effect on brain cell line NB-1 (IC50)
Description: as §4, §5, §3
Cell line NB-1 (ATCC, No. HTB-131) was cultured in 10% fetal bovine serum-containing Leibovitz's L-15 medium (+P/S).

[4] = system: Kelly (brain neuroblastoma cell); test: Cell viability assay (Promega CellTiter-Glo), inhibitory effect on Kelly; conditions: Homo sapiens, 72 h, 3 days of culture, read-out: inhibitory effect on brain cell line Kelly (IC50)
Description: as §4, §5, §3
Cell line Kelly (ECACC, No. 92110411) was cultured in 10% fetal bovine serum and 2 mM glutamine-containing RPMI1640 medium.

[5] = system: SW48 (human colon adenocarcinoma cell); test: Cell viability assay (Promega CellTiter-Glo), inhibitory effect on SW48; conditions: 72 h, 3 days of culture
Description: as §1, §2, §3
Cell line SW48 (ATCC, No. CCL-231) was cultured in 10% fetal bovine serum-containing Leibovitz's L-15 medium (+P/S).

[6] = system: MDA-MB-453 (breast cancer cell); test: Cell viability assay (Promega CellTiter-Glo), inhibitory effect on MDA-MB-453; conditions: Homo sapiens, 72 h, 3 days of culture
Description: as §1, §2, §3
Cell line MDA-MB-453 (ATCC, No. HTB-131) was cultured in 10% fetal bovine serum-containing Leibovitz's L-15 medium (+P/S).

[7] = system: GB-1 (human brain glioblastoma cell); test: Cell viability assay (Promega CellTiter-Glo), inhibitory effect on GB-1; conditions: 72 h, 3 days of culture
Description: as §1, §2, §3
Cell line GB-1 (JCRB, No. IFO50489) was cultured in 10% fetal bovine serum-containing DMEM medium (+P/S).
as §4, §5

[8] = system: CFPAC-1 (human pancreatic cancer cell); test: Cell viability assay (Promega CellTiter-Glo), inhibitory effect on CFPAC-1; conditions: 72 h, 3 days of culture
Description: as §1, §2, §3
Cell line CFPAC-1 (ATCC, No. CRL-1918) was cultured in 10% fetal bovine serum-containing IMDM medium (+P/S).

[9] = system: Con-NCI-H82 cell (NCI-H82 transfected with empty virus vector); test: Cell viability assay (Promega CellTiter-Glo), inhibitory effect on Con-NCI-H82 cell; conditions: Homo sapiens; NCI-H82 transfected with empty virus vector (control); CellTiter-Glo; read-out: inhibitory effect on Con-NCI-H82 (IC50)
Description: (§6) The role of expression level of NNMT gene and DNMT1 in the sensitivity of NCI-H82 cell to the compounds prepared in the Examples of the present invention was determined
(§7) The expression of NNMT protein in NCI-H82 cell was overexpressed by inserting the NNMT gene into NCI-H82 cell using a viral vector, and the NNMT protein-overexpressing NCI-H82 cell (ov-NNMT NCI-H82 cell) was obtained. The expression of DNMT1 in NCI-H82 cell was knocked down transfecting (the by shRNA nucleotide sequence of shRNA was […] TTTTTG (SEQ ID No: 2)) using a viral vector, and the NCI-H82 cell with low expression of DNMT1 protein (sh-DNMT1 NCI-H82 cell) was obtained. The control NCI-H82 cell (Con-NCI-H82 cell) was obtained by transfecting NCI-H82 cell with empty virus vector without carrying NNMT gene and shRNA. The expressing content of NNMT protein and DNMT1 protein in the Con-NCI-H82 cell, the expressing content of NNMT protein in the ov-NNMT NCI-H82 cell, and the expressing content of DNMT1 protein in the sh-DNMT1 NCI-H82 cell were detected using Western Blot assay (as shown in FIG. 15 and FIG. 16), it could be seen from FIG. 15 and FIG. 16 that the NNMT protein was overexpressed in the ov-NNMT NCI-H82 cell and the expression of DNMT1 protein was knocked down (i.e, low expression) in the sh-DNMT1 NCI-H82 cell compared with the expression level of NNMT protein and DNMT protein in the Con-NCI-H82 cell.

[10] = system: ov-NNMT NCI-H82 cell (NNMT protein-overexpressing NCI-H82); test: Cell viability assay (Promega CellTiter-Glo), inhibitory effect on ov-NNMT NCI-H82 cell; conditions: Homo sapiens
Description: as §6, §7

[11] = system: G-401 (human renal carcinoma Wilms cell); test: Cell viability assay (Promega CellTiter-Glo), inhibitory effect on G-401; conditions: 72 h, 3 days of culture
Description: as §1, §2, §3
Cell line G-401 (ATCC, No. CRL-1441) was cultured in 10% fetal bovine serum-containing McCoy's 5a medium (+P/S).

[12] = system: sh-DNMT1 NCI-H82 cell (DNMT1 knocked down NCI-H82); test: Cell viability assay (Promega CellTiter-Glo), inhibitory effect on sh-DNMT1 NCI-H82 cell; conditions: Homo sapiens, NCI-H82 with DNMT1 knocked down by shRNA
Description: as §6, §7

[13] = system: D341 Med (cerebellar medulloblastoma cell); test: Cell viability assay (Promega CellTiter-Glo), inhibitory effect on D341 Med; conditions: Homo sapiens, 72 h, 3 days of culture, read-out: inhibitory effect on brain cell line D341 Med (IC50)
Description: as §4, §5, §3
Cell line D341 Med (ATCC, No. HTB-187) was cultured in 20% fetal bovine serum-containing EMEM medium (+P/S).

[14] = system: 786-O (clear cell renal cell adenocarcinoma cell); test: Cell viability assay (Promega CellTiter-Glo), inhibitory effect on 786-O; conditions: Homo sapiens, 786-0, 72 h, 3 days of culture
Description: as §1, §2, §3
Cell line 786-0 (ATCC, No. CRL-1932) was cultured in 10% fetal bovine serum-containing RPMI1640 medium (+P/S).

[15] = 72 h, SF-126, 3 days of culture, Table 3, read-out: inhibitory effect on SF-126 (IC50)
[16] = SF-126, 72 h, SF126, 3 days of culture, Table 4, read-out: inhibitory effect on brain cell line SF126 (IC50)
[17] = Table 3, read-out: inhibitory effect on GB-1 (IC50)
[18] = Table 4, read-out: inhibitory effect on brain cell line GB-1 (IC50)

IC50 [1, 15] [µM] | IC50 [1, 16] [µM] | IC50 [2] [µM] | IC50 [3] [µM] | IC50 [4] [µM] | IC50 [5] [µM] | IC50 [6] [µM] | IC50 [7, 17] [µM] | IC50 [7, 18] [µM] | IC50 [8] [µM] | IC50 [9] [µM] | IC50 [10] [µM] | IC50 [11] [µM] | IC50 [12] [µM] | IC50 [13] [µM] | IC50 [14] [µM] | Compound
10.2 | 10.2 | 1.17 | 0.29 | 1.24 | 1.42 | 0.62 | 8.27 | 8.27 | 13.1 | 1.17 | 2.96 | 1.12 | 3.41 | 1.37 | 7.63 | CCCCc1c2c(OC)c(OC)ccc2cc2[n+]1CCc1cc3c(cc1-2)OCO3 [compound AB31707]
5.21 | 5.21 | 0.65 | 0.24 | 0.88 | 0.82 | 0.5 | 5.32 | 5.32 | 9.47 | 0.65 | 1.43 | 0.72 | 1.9 | 0.92 | 3.97 | CCCCc1c2c(OC)c(OC)cc(Br)c2cc2[n+]1CCc1cc3c(cc1-2)OCO3 [compound AB31711]
4.25 | 4.25 | 0.29 | 0.02 | 0.66 | 0.25 | 0.09 | 3.41 | 3.41 | 5.29 | 0.29 | 0.68 | 0.37 | 1.36 | 0.18 | 2.69 | COc1ccc2cc3[n+](cc2c1OCCCCOc1ccccc1)CCc1cc2c(cc1-3)OCO2 [compound AB31718]
10.8 | 10.8 | 0.4 | 0.14 | 1.26 | 0.8 | 0.43 | 10.1 | 10.1 | 7.17 | 0.4 | 0.92 | 1.38 | 1.31 | 0.36 | 9.16 | COc1ccc2cc3[n+](cc2c1OCCCBr)CCc1cc2c(cc1-3)OCO2 [compound AB31721]
20.6 | 20.6 | 2.81 | 0.98 | 2.52 | 2.06 | 1.41 | 40.5 | 40.5 | 24.4 | 2.81 | 5.98 | 3.94 | 8.93 | 2.89 | 26.2 | CCC(CC)C(=O)Oc1c(OC)ccc2cc3[n+](cc12)CCc1cc2c(cc1-3)OCO2 [compound AB31722]
6.19 | 6.19 | 0.52 | 0.07 | 0.86 | 0.62 | 0.22 | 6.64 | 6.64 | 8.98 | 0.52 | 1.32 | 0.77 | 1.66 | 0.34 | 3.76 | COc1ccc2cc3[n+](cc2c1OCCCCCCCl)CCc1cc2c(cc1-3)OCO2 [compound AB31731]
4.14 | 4.14 | 0.24 | 0.02 | 0.36 | 0.2 | 0.09 | 2.66 | 2.66 | 4.6 | 0.24 | 0.73 | 0.17 | 0.94 | 0.4 | 2.34 | COc1ccc2cc3[n+](cc2c1OC/C=C(\C)CCC=C(C)C)CCc1cc2c(cc1-3)OCO2 [compound AB31737]
3.57 | 3.57 | 0.45 | 0.09 | 0.64 | 0.43 | 0.37 | 3.97 | 3.97 | 6.07 | 0.45 | 0.95 | 0.53 | 1.55 | 0.86 | 3.05 | CCCCCCCCNc1c(OC)ccc2cc3[n+](cc12)CCc1cc2c(cc1-3)OCO2 [compound AB31739]
7.77 | 7.77 | 0.49 | 0.08 | 0.84 | 0.34 | 0.2 | 7.74 | 7.74 | 12.4 | 0.49 | 1.55 | 0.93 | 1.57 | 0.53 | 5.13 | COc1ccc2cc3[n+](cc2c1NCCc1ccccc1)CCc1cc2c(cc1-3)OCO2 [compound AB31740]
3.53 | 3.53 | 0.32 | 0.21 | 0.46 | 0.42 | 0.32 | 3.21 | 3.21 | 4.95 | 0.32 | 0.78 | 0.32 | 0.91 | 0.67 | 3.93 | COc1ccc2c(Cc3ccc(C(C)(C)C)cc3)c3[n+](cc2c1OC)CCc1cc2c(cc1-3)OCO2 [compound AB31748]
16 | 16 | 0.88 | 0.15 | 1.5 | 0.65 | 0.68 | 17.5 | 17.5 | 29.9 | 0.88 | 3.32 | 0.74 | 3.82 | 2.82 | 15.2 | CCCCc1c2[n+](cc3c(OC)c(OC)ccc13)CCc1cc3c(cc1-2)OCO3 [compound AB31757]
